In data set [1] the test system is E. coli. Briefly: Photodynamic inactivation (PDI), CFU survival, white light (red light for TBO). Format: cell-based, Escherichia coli. Particulars: 10 μM. As for the experimental part: (§1) Staphylococcus aureus (ATCC #35556), Escherichia coli (ATCC #25922), and Pseudomonas aeruginosa (ATCC #BAA-47; PAO1) were cultured in brain-heart infusion (BHI) broth (Difco, BD Diagnosttic Systems, Sparks, Md.) at 37° C. in aerobic conditions in a shaker at 150 rpm. Candida albicans (ATCC #18804) is grown in YM broth (Difco). Exponential cultures obtained by reculturing stationary overnight precultures were used for experiments.
(§2) E. coli, P. aeruginosa, and S. aureus are grown in fresh medium for approximately 1 hr to a density of about 10^8 cells/ml; the OD values at 650 nm are 0.6, 0.8, and 0.8, respectively. C. albicans is grown for approximately 4 hr to an approximate density of 10^8 cells/ml, corresponding to an OD of 6 at 650 nm (measured at 10-fold dilution). Cells were used for experiments in the mid-log growth phase.
(§3) A noncoherent lamp with filtered liquid light guides, e.g., a LumaCare™ LC122 lamp (MBG Technologies, Inc., Newport Beach, Calif.) was used to provide illumination of PS. More specifically, for illumination of fullerenes, a broad-band white light band pass filter (400-700 nm) was used, whereas for TBO, a band pass filter at 620-650 nm was used. The lamp was adjusted to give a uniform spot of about 4 cm diameter with an irradiance of 200 mW/cm^2, as measured with a power meter, e.g., a model DMM 199 meter with 201 Standard head (Coherent, Santa Clara, Calif.).
(§4) Typically, derivatized fullerenes prepared as described above are dissolved in DMSO to provide stock solutions having final concentrations of about 5 mM. […] All stock solutions were stored in the dark at room temperature.
(§5) In some experiments, for example in studies described in Examples below, suspensions of S. aureus cells (10^8 per ml) were incubated with derivatized fullerenes such as NI-1-3 and CI1-3 at a concentration of 100 μM in PBS at room temperature for 10 min. In other experiments, the bacterial suspension was centrifuged (4000×g for 10 min) after incubation and resuspended in fresh PBS before illumination; the latter procedure was referred to herein as a “wash.” E. coli, P. aeruginosa, and C. albicans were used at concentrations of about 10^8 cells per ml.
(§6) Illumination was carried out from above on microbial cell suspensions in wells of a 24-well plate. Aliquots were removed at times corresponding to the delivery of calculated fluences of light, and were serially diluted in PBS and streaked on square BHI or YM agar plates according to the method of Jett et al. (Jett, B. D., Hatter, K. L., Huycke, M. M., and Gilmore, M. S. (1997). Simplified agar plate method for quantifying viable bacteria. Biotechniques 23, 648-650). Survival fractions were calculated with reference to cells incubated in PBS alone. Values on killing curves at 0 J/cm^2 represent the dark toxicity of the fullerenes or other PS tested. Control cells were treated with light and no PS and also analyzed for viability.

Data set [2] has as its system E. coli. Briefly: Photodynamic inactivation (PDI), CFU survival, 405-nm light (Example 8). The data set is classed as cell-based, Escherichia coli. Particulars: 10-20 μM, 16 J/cm^2 of 405-nm light. From the text: (§7) Four microbial species were used in this study. Briefly, Escherichia coli was purchased from ATCC (ATCC #25922), Pseudomonas aeruginosa, two clinical isolates, were obtained; UCBP PA 14 from L. Rahme (Massachusetts General Hospital) and PA 767K from Kim Lewis (Tufts University), slime deficient mutant of Staphylococcus aureus was obtained from Gerald B Pier (Channing Laboratories). Yeast strain Candida albicans was purchased from ATCC (ATCC #18804). Exponential cultures obtained by reculturing stationary overnight cultures were used for all experiments. Bacteria were grown at 37° C. in BHI broth to a cell density of 10^8 cells per mL. C. albicans was grown 37° C. in YM medium to 10^7 cells/mL.
(§8) Six fullerene derivatives (NI1-3 and CI1-3) were evaluated. […] Concentration of fullerene derivatives used in the experiments varied between 1 and 100 μM.
(§9) Fullerene derivatives were mixed with microbial suspensions and incubated in the dark at room temperature for 10 minutes. Excess fullerenes were either washed out of, or left in, the suspensions before illumination. […]
(§10) During illumination, aliquots of 20 μL were taken to determine the colony-forming units. […] Colonies were counted and survival fraction was determined as percent of survival compared to control. […]

For another data set, the system named is S. aureus. Described as above. The data set is classed as cell-based, Staphylococcus aureus.
Description: as §7, §8
Fullerene derivatives were mixed with microbial suspensions and incubated in the dark at room temperature for 10 minutes. Excess fullerenes were either washed out of, or left in, the suspensions before illumination. Aliquots of 100 μL were placed on three well hanging drop slides and illuminated with either a 405-nm laser (Nichia Chemical Industries) at an irradiance of 100 mW/cm^2, or with white light at room temperature. White light was 400-700 nm Gaussian distribution from LumaCare™ lamp with filtered liquid light guide, as described above.
During illumination, aliquots of 20 μL were taken to determine the colony-forming units. The contents of the wells were mixed before sampling. The aliquots were serially diluted 10-fold in PBS without Ca^++/Mg^++ to give dilutions of 10^−1−10^−6 times the original concentrations, and were streaked horizontally on square BHI agar plates. Plates were incubated at 37° C. overnight. Colonies were counted and survival fraction was determined as percent of survival compared to control. Microbial suspensions incubated with fullerene derivatives in DMSO in the absence of light and bacteria illuminated in the absence of fullerene derivatives were used as controls. […]

Data set [3] has as its system C. albicans. Briefly: Photodynamic inactivation (PDI), CFU survival, white light (red light for TBO). The data set is classed as cell-based, Candida albicans. Particulars: 10 μM, 10 min. As for the experimental part:
as §1, §2, §3, §4, §5, §6

Data set [4] concerns C. albicans. Description: Photodynamic inactivation (PDI), CFU survival, 405-nm light (Example 8). Particulars: 10-20 μM, 16 J/cm^2 of 405-nm light. The data set is classed as cell-based, Candida albicans.
Description: as §7, §8, §9, §10

The nature of data set [5]: Octanol-water distribution coefficient. To be noted: 1-octanol/DI water, absorbance at 330 nm. Format: physicochemical. The protocol:
Each compound was dissolved in a minimum amount of DMSO: CI1 (0.9 mg in 200 μl), CI2 (5.3 mg in 200 μl), CI3 (5.4 mg in 200 μl). Ten ml of DI water and 10 ml of 1-octanol were added in each compound and vigorously shaken for 2 min. and the vials of the compounds were settled down overnight. The phases were separated and UV-spectra of each phase were analyzed. Distribution coefficient of each compound was determined using absorbance of aqueous phases and organic phases at 330 nm.

A further data set relates to P. aeruginosa. Description: Photodynamic inactivation (PDI), CFU survival, white light (red light for TBO). Format: cell-based, Pseudomonas aeruginosa. To be noted: 10 μM, 10 min, white light up to 50 J/cm^2. The protocol: as §1, §2, §3, §4, §5, §6

In the case of `C[N+]1(C)Cc2c(c3c4ccc5c6ccc7c8ccc9c%10c%11c%12c(c2c2c3c3c4c5c4c6c7c5c8c9c%11c6c(c%122)c3c4c56)C2C[N+](C)(C)CC%102)C1` (stereo not shown) [CI2], the “change of E. coli killing in the presence of serum versus no serum” value in the data set with E. coli [1] (10 min, 10% FBS, with a wash, white light) is listed as “about 1 log”. Also, the “PDT activity against E. coli” value with E. coli [1] (10 min, white light up to 50 J/cm^2) is recorded as “effectively killed”. For the same compound, in the data set on E. coli [1] (with a wash, 2 J/cm^2 white light), the “killing of E. coli” value was 4 logs. Further, the “killing of E. coli” value in the data set with E. coli [2] is “high levels of killing”. For the same compound, the “PDI of S. aureus” value in the data set with S. aureus (100 μM, 10 min, 405 nm light 0-200 J/cm^2) is recorded as “most potent”. The “killing of S. aureus” value with S. aureus (1-μM, 8 J/cm^2, 405 nm light) was determined as 6 logs. Also, the “potency relative to the other fullerene derivatives” value with S. aureus (S. aureus, 1 μM and 8 J/cm^2 versus 100 μM screen) is recorded as “approximately 1000 times”. For the same compound, the “PDT activity against C. albicans” value in the data set with C. albicans [3] (white light up to 50 J/cm^2) is given as “effectively killed”. For the same compound, the “relative effectiveness in killing C. albicans” value in the data set with C. albicans [3] (with a wash, white light) is recorded as “much better than CI1”. In addition, in the data set on C. albicans [4], the “killing of C. albicans” value is listed as “high levels of killing”. In addition, in data set [5], the “Kow (octanol-water partition constant)” value is reported as 1.28 and the LogKow was 0.11. Moreover, the “PDT activity against P. aeruginosa” value in the data set with P. aeruginosa is listed as “effectively killed”.

The values are drawn from US8207211B2, “Photosensitizers for targeted photodynamic therapy” (The General Hospital Corporation, priority 2005, dated 2012).
